# Assay results as given in PMC3001885, “Metabolic Activity and mRNA Levels of Human Cardiac CYP450s Involved in Drug Metabolism” (PLoS ONE, 2010).
# Key:
# human heart microsomes = assay: Verapamil metabolism in human heart microsomes (formation of metabolites, HPLC); format: in vitro ADME
# Experimental: The HPLC system (Thermo Separation products, Fremont, CA) consisted of a SpectraSystem P4000 pump, a SpectraSystem AS3000 autosampler, a FL3000 fluorescence detector, a SpectraSystem UV3000 ultraviolet detector and PC1000 System Software.
# Frozen samples of human heart ventricles (4–10 g) were immersed in cold phosphate buffer 100 mM (pH 7.4) containing potassium chloride 150 mM, EDTA 1 mM, dithiotreitol 0.5 mM and PMSF 0.01 mM (1∶3, w/v). Tissue was roughly sliced prior to homogenization using a Polytron. The resulting suspension was sonicated 3 times for 5–10 seconds. Homogenization and sonication were performed on ice. Microsomal fractions were isolated by centrifugation at 10,000 g for 20 minutes. The resulting supernatant was centrifuged twice at 100,000 g for 2 consecutive 90-minute periods. The final microsomal pellet was resuspended in a phosphate buffer 100 mM (pH 7.4), potassium chloride 150 mM and EDTA 1 mM. All procedures were performed at 4°C. […] The leftover heart microsomes were immediately shock frozen in liquid nitrogen for subsequent protein quantification. Microsomal heart proteins were quantified using a BCA Pierce kit.
# All microsomal incubations were performed in duplicate.
# Incubations containing microsomes, buffer and NADPH-regenerating system solution were pre-incubated at 37°C for 10 minutes. […] The enzymatic process was stopped by adding 500 µL of ice-cold acetonitrile. Different incubation times were assessed: 15 minutes to 4 hours. Incubation mixtures were centrifuged at 15,000 rpm for 10 minutes.
# A series of incubations was also performed with previously inactivated human heart microsomes. The CYP450 proteins were inactivated by heating microsomes at 60°C for 10 minutes. Incubations were also conducted in the presence of nitrogen gas or carbon monoxide gas in replacement of ambient air to inactivate CYP450s.
# [1] = system: CYP450s in human heart microsomes; assay: Inhibition of verapamil metabolite formation in human heart microsomes by chemical inhibitors; details: inhibitor 100 µM, verapamil 400 µM
# [2] = left ventricular microsomes, n = 20, substrate verapamil
# [3] = microsomes prepared from right ventricles, n = 8, substrate verapamil
decrease in formation of all major verapamil metabolites [1],SMILES,"formation rate of verapamil metabolites, median (range; minimum-maximum values) (human heart microsomes; [2])","formation rate of verapamil metabolites, median (range; minimum-maximum values) (human heart microsomes; [3])"
–,COc1ccc(CCNCCCC(C#N)(c2ccc(OC)c(OC)c2)C(C)C)cc1OC (stereo not drawn) [norverapamil],25 (5.8–214) pmol/min/mg of heart microsomal proteins,39 (5.8–145) pmol/min/mg of heart microsomal proteins
more than 80%,CCCC(C(=O)OCCN(CC)CC)(c1ccccc1)c1ccccc1 [SKF525],–,–
more than 80%,CCCCCCCCN [N-octylamine],–,–
–,COc1cc(C(C#N)(CCCNCCc2ccc(OC)c(OC)c2)C(C)C)ccc1O (stereo not drawn) [PR22],27 (2.1–76) pmol/min/mg of heart microsomal proteins,21 (3.7–64.4) pmol/min/mg of heart microsomal proteins
